Data reported in patent US9266835B2, “Quinoline derivatives useful as CB-1 inverse agonists” (JANSSEN PHARMACEUTICA NV, priority 2014, dated 2016).
Like-named read-outs stand apart in the source and are kept apart here.

Key:
[1] = Mouse Fast PK/BBB (plasma and brain concentration); assay type: in vivo; settings: male, C57bl/6j, oral, N=3 (dose given as 30 mg/kg and 20 mg/kg)
Description: Male Sprague Dawley rats were ordered from Charles River (225-250 gm upon arrival). They were fed standard chow diet (Purina 5001) and housed 2 per cage. Male C57bl/6j mice were ordered from Charles River at 22-25 g and housed 3 per cage. They were fed standard chow (Purina 5001). All animals were housed in a temperature-controlled room with 12-hour light/dark cycle. Animals were given food and water ad libitum, except as noted.
(§1) Test compounds were formulated in 10% PEG400 and 10% solutol. Test compounds were administered by oral gavage (5 ml kg^−1).
Male C57bl/6j mice were dosed with test compounds at 30 mg/kg. Plasma was collected via retro-orbital bleeding at 1 hr and 4 hrs after dosing. Whole brain without cerebellum was collected at 4 hrs after dosing. Wet brain weight was recorded before freezing. Brains were homogenized in saline and sent for analysis for determination of concentration of test compound.
Table BIO-3 below present results for representative compounds of the present invention, tested according to the procedure as described above. Each compound was tested in three animals (N=3) and administered PA at 20 mg/kg

[2] = Chronic DIO Mouse, first study (food intake, body weight, insulin tolerance test, glucose tolerance test, plasma insulin, fed blood glucose); assay type: in vivo; settings: DIO mice; for Fed Blood Glucose / Plasma Insulin: mean (Std Err); for Insulin Tolerance Test, Blood Glucose AUC: day 19; for Intraperitoneal Glucose Tolerance Test Blood Glucose AUC: day 23
Description: Male 14-20-week old diet-induced obese mice were ordered from Taconic. Mice were started on a 60% fat diet (D12492, Research Diets, New Brunswick, N.J.) at 6 weeks of age. Mice were single-housed.
as §1
The test compound was formulated in 10% PEG400 and 10% solutol. DIO mice received vehicle, test compound (@ 1, 3 and 10 mg/kg) daily for 26 days. At the end of the experiment, the mice were euthanized and blood and tissues were collected.
Body weight and food weight (food intake) were monitored daily for days 1-5 and twice weekly thereafter. Fed blood glucose was measured weekly.
An insulin tolerance test (0.5 U/kg Humulin, ip) was performed on day 19 after a 4 hour food removal. Blood glucose was measured at 0, 15, 30, 60 and 120 minutes after insulin. […] Blood glucose was measured at 0, 30, 60 and 120 minutes after glucose challenge.
Blood glucose was measured from the tail vein with a Lifescan glucometer. Plasma insulin was measured with an ELISA or HTRF kit (Cisbio). Plasma parameters were measured with an Olympus clinical chemistry analyzer.
Compound #44 was tested according to the procedure as described above, with results as listed in Table BIO-4A through Table BIO4-G, below.

Q: Which results are given for `O=c1cc(NC2CCN(S(=O)(=O)C(F)(F)F)CC2)c2cc(C(c3ccc(Cl)cc3)c3ccc(Cl)cc3)ccc2[nH]1` [Compound #44, 6-(bis(4-chlorophenyl)methyl)-4-(1-(trifluoromethylsulfonyl)piperidin-4-ylamino)quinolin-2(1H)-one]?
A: concentration at 4 h ([1]; brain, read-out: BRAIN Mean Conc. ± Std. Dev): 11.8 ± 8.99 ng/mL; concentration at 1 h ([1]; plasma, 1 hr, read-out: PLASMA Mean Conc. ± Std. Dev): 1050 ± 122 ng/mL; concentration at 4 h ([1]; plasma, read-out: PLASMA Mean Conc. ± Std. Dev): 1180 ± 148 ng/mL; Fed Blood Glucose ([2]; 1 mg/kg daily oral, Day 0): 162.75 (13.02) mg/dL; Fed Blood Glucose ([2]; 1 mg/kg daily oral, Day 18): 154.83 (5.98) mg/dL; Plasma Insulin ([2]; 1 mg/kg daily oral): 2.60 (0.3) ng/mL; Mean Body Weight (Std Err) ([2]; 1 mg/kg daily, Day 1): 43.32 (0.45) Grams; Mean Body Weight (Std Err) ([2]; 1 mg/kg daily, Day 2): 43.28 (0.45) Grams; Mean Daily Food Intake (Std Err) ([2]; 1 mg/kg daily, Day 2): 2.84 (0.17) Grams; Mean Body Weight (Std Err) ([2]; 1 mg/kg daily, Day 3): 43.28 (0.42) Grams; Mean Daily Food Intake (Std Err) ([2]; 1 mg/kg daily, Day 3): 3.00 (0.09) Grams; Mean Body Weight (Std Err) ([2]; 1 mg/kg daily, Day 4): 43.06 (0.44) Grams; Mean Daily Food Intake (Std Err) ([2]; 1 mg/kg daily, Day 4): 2.76 (0.17) Grams; Mean Body Weight (Std Err) ([2]; 1 mg/kg daily, Day 5): 43.21 (0.50) Grams; Mean Daily Food Intake (Std Err) ([2]; 1 mg/kg daily, Day 5): 2.88 (0.12) Grams; Mean Body Weight (Std Err) ([2]; 1 mg/kg daily, Day 8): 42.62 (0.48) Grams; Mean Daily Food Intake (Std Err) ([2]; 1 mg/kg daily, Day 8): 2.50 (0.09) Grams; Mean Body Weight (Std Err) ([2]; 1 mg/kg daily, Day 10): 42.38 (0.51) Grams; Mean Daily Food Intake (Std Err) ([2]; 1 mg/kg daily, Day 10): 2.37 (0.07) Grams; Mean Body Weight (Std Err) ([2]; 1 mg/kg daily, Day 11): 42.07 (0.63) Grams; Mean Daily Food Intake (Std Err) ([2]; 1 mg/kg daily, Day 11): 2.28 (0.15) Grams; Insulin Tolerance Test, Blood Glucose AUC ([2]; 1 mg/kg daily): 18543.8 mg·min/dL; Insulin Tolerance Test Mean Blood Glucose (Std Err) ([2]; 1 mg/kg daily, day 19, 0 min after insulin): 194.0 (6.1) mg/dL; Insulin Tolerance Test Mean Blood Glucose (Std Err) ([2]; 1 mg/kg daily, day 19, 15 min after insulin): 196.1 (18.6) mg/dL; Insulin Tolerance Test Mean Blood Glucose (Std Err) ([2]; 1 mg/kg daily, day 19, 30 min after insulin): 136.7 (10.4) mg/dL; Insulin Tolerance Test Mean Blood Glucose (Std Err) ([2]; 1 mg/kg daily, day 19, 60 min after insulin): 145.1 (11.5) mg/dL; Insulin Tolerance Test Mean Blood Glucose (Std Err) ([2]; 1 mg/kg daily, day 19, 120 min after insulin): 151.4 (7.8) mg/dL; Intraperitoneal Glucose Tolerance Test Blood Glucose AUC ([2]; 1 mg/kg daily): 29525.6 mg·min/dL; Intraperitoneal Glucose Tolerance Test Mean Blood Glucose (Std Err) ([2]; 1 mg/kg daily, day 23, 0 min after glucose): 158.1 (6.9) mg/dL; Intraperitoneal Glucose Tolerance Test Mean Blood Glucose (Std Err) ([2]; 1 mg/kg daily, day 23, 30 min after glucose): 334.6 (14.5) mg/dL; Intraperitoneal Glucose Tolerance Test Mean Blood Glucose (Std Err) ([2]; 1 mg/kg daily, day 23, 60 min after glucose): 264.8 (19.7) mg/dL; Intraperitoneal Glucose Tolerance Test Mean Blood Glucose (Std Err) ([2]; 1 mg/kg daily, day 23, 120 min after glucose): 173.4 (13.5) mg/dL; Fed Blood Glucose ([2]; 3 mg/kg daily oral, Day 0): 167.13 (7.59) mg/dL; Fed Blood Glucose ([2]; 3 mg/kg daily oral, Day 18): 156.50 (7.39) mg/dL; Plasma Insulin ([2]; 3 mg/kg daily oral): 2.26 (0.3) ng/mL; Mean Body Weight (Std Err) ([2]; 3 mg/kg daily, Day 1): 43.19 (0.39) Grams; Mean Body Weight (Std Err) ([2]; 3 mg/kg daily, Day 2): 42.86 (0.47) Grams; Mean Daily Food Intake (Std Err) ([2]; 3 mg/kg daily, Day 2): 2.71 (0.13) Grams; Mean Body Weight (Std Err) ([2]; 3 mg/kg daily, Day 3): 42.71 (0.56) Grams; Mean Daily Food Intake (Std Err) ([2]; 3 mg/kg daily, Day 3): 2.92 (0.13) Grams; Mean Body Weight (Std Err) ([2]; 3 mg/kg daily, Day 4): 42.20 (0.65) Grams; Mean Daily Food Intake (Std Err) ([2]; 3 mg/kg daily, Day 4): 2.44 (0.24) Grams; Mean Body Weight (Std Err) ([2]; 3 mg/kg daily, Day 5): 41.95 (0.70) Grams; Mean Daily Food Intake (Std Err) ([2]; 3 mg/kg daily, Day 5): 2.26 (0.20) Grams; Mean Body Weight (Std Err) ([2]; 3 mg/kg daily, Day 8): 41.06 (0.76) Grams; Mean Daily Food Intake (Std Err) ([2]; 3 mg/kg daily, Day 8): 2.30 (0.11) Grams; Mean Body Weight (Std Err) ([2]; 3 mg/kg daily, Day 10): 40.50 (0.74) Grams; Mean Daily Food Intake (Std Err) ([2]; 3 mg/kg daily, Day 10): 2.14 (0.15) Grams; Mean Body Weight (Std Err) ([2]; 3 mg/kg daily, Day 11): 40.15 (0.74) Grams; Mean Daily Food Intake (Std Err) ([2]; 3 mg/kg daily, Day 11): 1.95 (0.11) Grams; Insulin Tolerance Test, Blood Glucose AUC ([2]; 3 mg/kg daily): 16879.5 mg·min/dL; Insulin Tolerance Test Mean Blood Glucose (Std Err) ([2]; 3 mg/kg daily, day 19, 0 min after insulin): 189.4 (7.3) mg/dL; Insulin Tolerance Test Mean Blood Glucose (Std Err) ([2]; 3 mg/kg daily, day 19, 15 min after insulin): 178.8 (12.5) mg/dL; Insulin Tolerance Test Mean Blood Glucose (Std Err) ([2]; 3 mg/kg daily, day 19, 30 min after insulin): 121.4 (13.7) mg/dL; Insulin Tolerance Test Mean Blood Glucose (Std Err) ([2]; 3 mg/kg daily, day 19, 60 min after insulin): 119.7 (9.6) mg/dL; Insulin Tolerance Test Mean Blood Glucose (Std Err) ([2]; 3 mg/kg daily, day 19, 120 min after insulin): 155.3 (9.5) mg/dL; Intraperitoneal Glucose Tolerance Test Blood Glucose AUC ([2]; 3 mg/kg daily): 29983.1 mg·min/dL; Intraperitoneal Glucose Tolerance Test Mean Blood Glucose (Std Err) ([2]; 3 mg/kg daily, day 23, 0 min after glucose): 161.8 (5.0) mg/dL; Intraperitoneal Glucose Tolerance Test Mean Blood Glucose (Std Err) ([2]; 3 mg/kg daily, day 23, 30 min after glucose): 352.0 (22.6) mg/dL; Intraperitoneal Glucose Tolerance Test Mean Blood Glucose (Std Err) ([2]; 3 mg/kg daily, day 23, 60 min after glucose): 264.6 (25.6) mg/dL; Intraperitoneal Glucose Tolerance Test Mean Blood Glucose (Std Err) ([2]; 3 mg/kg daily, day 23, 120 min after glucose): 169.6 (9.2) mg/dL; Fed Blood Glucose ([2]; 10 mg/kg daily oral, Day 0): 161.88 (6.71) mg/dL; Fed Blood Glucose ([2]; 10 mg/kg daily oral, Day 18): 154.00 (5.53) mg/dL; Plasma Insulin ([2]; 10 mg/kg daily oral): 2.14 (0.3) ng/mL; Mean Body Weight (Std Err) ([2]; 10 mg/kg daily, Day 1): 43.26 (0.40) Grams; Mean Body Weight (Std Err) ([2]; 10 mg/kg daily, Day 2): 42.39 (0.36) Grams; Mean Daily Food Intake (Std Err) ([2]; 10 mg/kg daily, Day 2): 2.24 (0.10) Grams; Mean Body Weight (Std Err) ([2]; 10 mg/kg daily, Day 3): 41.61 (0.41) Grams; Mean Daily Food Intake (Std Err) ([2]; 10 mg/kg daily, Day 3): 2.29 (0.16) Grams; Mean Body Weight (Std Err) ([2]; 10 mg/kg daily, Day 4): 40.76 (0.37) Grams; Mean Daily Food Intake (Std Err) ([2]; 10 mg/kg daily, Day 4): 1.70 (0.08) Grams; Mean Body Weight (Std Err) ([2]; 10 mg/kg daily, Day 5): 40.17 (0.39) Grams; Mean Daily Food Intake (Std Err) ([2]; 10 mg/kg daily, Day 5): 1.58 (0.11) Grams; Mean Body Weight (Std Err) ([2]; 10 mg/kg daily, Day 8): 38.16 (0.48) Grams; Mean Daily Food Intake (Std Err) ([2]; 10 mg/kg daily, Day 8): 1.80 (0.12) Grams; Mean Body Weight (Std Err) ([2]; 10 mg/kg daily, Day 10): 37.47 (0.56) Grams; Mean Daily Food Intake (Std Err) ([2]; 10 mg/kg daily, Day 10): 2.02 (0.13) Grams; Mean Body Weight (Std Err) ([2]; 10 mg/kg daily, Day 11): 36.67 (0.55) Grams; Mean Daily Food Intake (Std Err) ([2]; 10 mg/kg daily, Day 11): 1.94 (0.11) Grams; Insulin Tolerance Test, Blood Glucose AUC ([2]; 10 mg/kg daily): 14258.3 mg·min/dL; Insulin Tolerance Test Mean Blood Glucose (Std Err) ([2]; 10 mg/kg daily, day 19, 0 min after insulin): 163.5 (5.9) mg/dL; Insulin Tolerance Test Mean Blood Glucose (Std Err) ([2]; 10 mg/kg daily, day 19, 15 min after insulin): 138.4 (20.0) mg/dL; Insulin Tolerance Test Mean Blood Glucose (Std Err) ([2]; 10 mg/kg daily, day 19, 30 min after insulin): 96.2 (11.0) mg/dL; Insulin Tolerance Test Mean Blood Glucose (Std Err) ([2]; 10 mg/kg daily, day 19, 60 min after insulin): 99.7 (9.7) mg/dL; Insulin Tolerance Test Mean Blood Glucose (Std Err) ([2]; 10 mg/kg daily, day 19, 120 min after insulin): 143.5 (8.3) mg/dL; Intraperitoneal Glucose Tolerance Test Blood Glucose AUC ([2]; 10 mg/kg daily): 25680.0 mg·min/dL; Intraperitoneal Glucose Tolerance Test Mean Blood Glucose (Std Err) ([2]; 10 mg/kg daily, day 23, 0 min after glucose): 141.6 (6.5) mg/dL; Intraperitoneal Glucose Tolerance Test Mean Blood Glucose (Std Err) ([2]; 10 mg/kg daily, day 23, 30 min after glucose): 319.1 (26.9) mg/dL; Intraperitoneal Glucose Tolerance Test Mean Blood Glucose (Std Err) ([2]; 10 mg/kg daily, day 23, 60 min after glucose): 225.1 (20.3) mg/dL; Intraperitoneal Glucose Tolerance Test Mean Blood Glucose (Std Err) ([2]; 10 mg/kg daily, day 23, 120 min after glucose): 128.4 (5.7) mg/dL
